{"source": "paper PMC4146346", "about": "(Journal of cellular physiology, 2012)", "assay_in_all_cases": "whole-cell patch clamp in HEK-293", "assay_type_in_all_cases": "cell-based", "key": {"CaV3.3 (α1I)": {"molecular_target": "CaV3.3 (α1I) (Homo sapiens, UniProt Q9P0X4)", "sequence (Q9P0X4 whole entry)": "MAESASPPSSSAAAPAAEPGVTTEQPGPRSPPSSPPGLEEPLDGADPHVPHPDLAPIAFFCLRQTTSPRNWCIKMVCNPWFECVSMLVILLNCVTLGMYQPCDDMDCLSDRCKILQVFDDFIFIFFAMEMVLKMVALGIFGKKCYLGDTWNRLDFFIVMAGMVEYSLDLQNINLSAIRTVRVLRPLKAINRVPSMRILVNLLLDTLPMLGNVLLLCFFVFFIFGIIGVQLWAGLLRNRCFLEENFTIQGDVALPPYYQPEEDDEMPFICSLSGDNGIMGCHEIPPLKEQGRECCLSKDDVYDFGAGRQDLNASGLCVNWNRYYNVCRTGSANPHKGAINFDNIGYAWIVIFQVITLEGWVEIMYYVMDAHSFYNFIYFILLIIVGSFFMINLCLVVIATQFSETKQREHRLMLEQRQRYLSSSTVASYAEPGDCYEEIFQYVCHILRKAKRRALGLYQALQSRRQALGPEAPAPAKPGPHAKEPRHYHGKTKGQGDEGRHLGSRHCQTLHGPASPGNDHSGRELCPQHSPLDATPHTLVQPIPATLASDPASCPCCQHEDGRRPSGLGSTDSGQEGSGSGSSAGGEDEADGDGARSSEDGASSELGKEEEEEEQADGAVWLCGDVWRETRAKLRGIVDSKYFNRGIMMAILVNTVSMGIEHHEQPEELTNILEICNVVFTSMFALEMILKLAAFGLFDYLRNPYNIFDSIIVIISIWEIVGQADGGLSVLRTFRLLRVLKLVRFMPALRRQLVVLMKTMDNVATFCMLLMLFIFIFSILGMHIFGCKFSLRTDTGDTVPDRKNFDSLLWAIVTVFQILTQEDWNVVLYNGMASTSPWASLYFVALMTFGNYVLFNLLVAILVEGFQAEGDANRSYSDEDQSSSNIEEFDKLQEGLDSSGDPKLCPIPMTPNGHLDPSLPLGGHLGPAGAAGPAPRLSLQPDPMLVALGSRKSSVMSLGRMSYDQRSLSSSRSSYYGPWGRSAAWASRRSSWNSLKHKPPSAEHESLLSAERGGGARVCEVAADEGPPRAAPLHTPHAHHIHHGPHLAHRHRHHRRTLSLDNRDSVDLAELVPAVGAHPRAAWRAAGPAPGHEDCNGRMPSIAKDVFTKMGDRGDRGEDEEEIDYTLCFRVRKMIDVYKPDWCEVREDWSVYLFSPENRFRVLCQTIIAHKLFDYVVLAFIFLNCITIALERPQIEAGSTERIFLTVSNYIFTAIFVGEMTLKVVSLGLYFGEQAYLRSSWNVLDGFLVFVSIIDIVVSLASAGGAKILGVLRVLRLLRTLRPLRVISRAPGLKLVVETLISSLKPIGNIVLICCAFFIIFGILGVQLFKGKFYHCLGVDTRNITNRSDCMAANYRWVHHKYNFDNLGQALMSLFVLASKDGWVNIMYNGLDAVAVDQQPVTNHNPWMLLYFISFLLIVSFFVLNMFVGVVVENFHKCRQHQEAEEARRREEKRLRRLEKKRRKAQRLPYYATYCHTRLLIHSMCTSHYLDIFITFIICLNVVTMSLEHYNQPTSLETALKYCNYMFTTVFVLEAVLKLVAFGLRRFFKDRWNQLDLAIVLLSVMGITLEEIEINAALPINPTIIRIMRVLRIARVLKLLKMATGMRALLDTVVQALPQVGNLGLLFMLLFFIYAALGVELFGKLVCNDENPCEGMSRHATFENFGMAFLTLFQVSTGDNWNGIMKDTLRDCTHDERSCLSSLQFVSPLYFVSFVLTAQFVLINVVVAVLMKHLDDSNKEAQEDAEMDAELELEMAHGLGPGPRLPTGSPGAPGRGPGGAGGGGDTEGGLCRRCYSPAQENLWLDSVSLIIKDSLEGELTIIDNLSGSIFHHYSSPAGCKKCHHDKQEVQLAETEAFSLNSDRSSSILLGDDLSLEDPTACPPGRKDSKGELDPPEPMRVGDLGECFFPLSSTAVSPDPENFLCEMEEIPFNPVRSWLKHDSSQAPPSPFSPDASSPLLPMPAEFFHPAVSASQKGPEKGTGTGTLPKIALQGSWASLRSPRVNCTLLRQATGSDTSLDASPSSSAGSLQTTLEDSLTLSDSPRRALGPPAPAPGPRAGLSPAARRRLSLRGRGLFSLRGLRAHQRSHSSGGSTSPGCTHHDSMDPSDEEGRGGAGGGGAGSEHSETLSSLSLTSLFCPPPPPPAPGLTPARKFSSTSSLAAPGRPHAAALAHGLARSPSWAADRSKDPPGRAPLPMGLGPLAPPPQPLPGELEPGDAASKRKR"}, "CaV3.1 (α1G)": {"molecular_target": "CaV3.1 (α1G) (Homo sapiens, UniProt O43497)"}, "CaV3.2 (α1H)": {"molecular_target": "CaV3.2 (α1H) (Homo sapiens, UniProt O95180)", "sequence (O95180 whole entry)": "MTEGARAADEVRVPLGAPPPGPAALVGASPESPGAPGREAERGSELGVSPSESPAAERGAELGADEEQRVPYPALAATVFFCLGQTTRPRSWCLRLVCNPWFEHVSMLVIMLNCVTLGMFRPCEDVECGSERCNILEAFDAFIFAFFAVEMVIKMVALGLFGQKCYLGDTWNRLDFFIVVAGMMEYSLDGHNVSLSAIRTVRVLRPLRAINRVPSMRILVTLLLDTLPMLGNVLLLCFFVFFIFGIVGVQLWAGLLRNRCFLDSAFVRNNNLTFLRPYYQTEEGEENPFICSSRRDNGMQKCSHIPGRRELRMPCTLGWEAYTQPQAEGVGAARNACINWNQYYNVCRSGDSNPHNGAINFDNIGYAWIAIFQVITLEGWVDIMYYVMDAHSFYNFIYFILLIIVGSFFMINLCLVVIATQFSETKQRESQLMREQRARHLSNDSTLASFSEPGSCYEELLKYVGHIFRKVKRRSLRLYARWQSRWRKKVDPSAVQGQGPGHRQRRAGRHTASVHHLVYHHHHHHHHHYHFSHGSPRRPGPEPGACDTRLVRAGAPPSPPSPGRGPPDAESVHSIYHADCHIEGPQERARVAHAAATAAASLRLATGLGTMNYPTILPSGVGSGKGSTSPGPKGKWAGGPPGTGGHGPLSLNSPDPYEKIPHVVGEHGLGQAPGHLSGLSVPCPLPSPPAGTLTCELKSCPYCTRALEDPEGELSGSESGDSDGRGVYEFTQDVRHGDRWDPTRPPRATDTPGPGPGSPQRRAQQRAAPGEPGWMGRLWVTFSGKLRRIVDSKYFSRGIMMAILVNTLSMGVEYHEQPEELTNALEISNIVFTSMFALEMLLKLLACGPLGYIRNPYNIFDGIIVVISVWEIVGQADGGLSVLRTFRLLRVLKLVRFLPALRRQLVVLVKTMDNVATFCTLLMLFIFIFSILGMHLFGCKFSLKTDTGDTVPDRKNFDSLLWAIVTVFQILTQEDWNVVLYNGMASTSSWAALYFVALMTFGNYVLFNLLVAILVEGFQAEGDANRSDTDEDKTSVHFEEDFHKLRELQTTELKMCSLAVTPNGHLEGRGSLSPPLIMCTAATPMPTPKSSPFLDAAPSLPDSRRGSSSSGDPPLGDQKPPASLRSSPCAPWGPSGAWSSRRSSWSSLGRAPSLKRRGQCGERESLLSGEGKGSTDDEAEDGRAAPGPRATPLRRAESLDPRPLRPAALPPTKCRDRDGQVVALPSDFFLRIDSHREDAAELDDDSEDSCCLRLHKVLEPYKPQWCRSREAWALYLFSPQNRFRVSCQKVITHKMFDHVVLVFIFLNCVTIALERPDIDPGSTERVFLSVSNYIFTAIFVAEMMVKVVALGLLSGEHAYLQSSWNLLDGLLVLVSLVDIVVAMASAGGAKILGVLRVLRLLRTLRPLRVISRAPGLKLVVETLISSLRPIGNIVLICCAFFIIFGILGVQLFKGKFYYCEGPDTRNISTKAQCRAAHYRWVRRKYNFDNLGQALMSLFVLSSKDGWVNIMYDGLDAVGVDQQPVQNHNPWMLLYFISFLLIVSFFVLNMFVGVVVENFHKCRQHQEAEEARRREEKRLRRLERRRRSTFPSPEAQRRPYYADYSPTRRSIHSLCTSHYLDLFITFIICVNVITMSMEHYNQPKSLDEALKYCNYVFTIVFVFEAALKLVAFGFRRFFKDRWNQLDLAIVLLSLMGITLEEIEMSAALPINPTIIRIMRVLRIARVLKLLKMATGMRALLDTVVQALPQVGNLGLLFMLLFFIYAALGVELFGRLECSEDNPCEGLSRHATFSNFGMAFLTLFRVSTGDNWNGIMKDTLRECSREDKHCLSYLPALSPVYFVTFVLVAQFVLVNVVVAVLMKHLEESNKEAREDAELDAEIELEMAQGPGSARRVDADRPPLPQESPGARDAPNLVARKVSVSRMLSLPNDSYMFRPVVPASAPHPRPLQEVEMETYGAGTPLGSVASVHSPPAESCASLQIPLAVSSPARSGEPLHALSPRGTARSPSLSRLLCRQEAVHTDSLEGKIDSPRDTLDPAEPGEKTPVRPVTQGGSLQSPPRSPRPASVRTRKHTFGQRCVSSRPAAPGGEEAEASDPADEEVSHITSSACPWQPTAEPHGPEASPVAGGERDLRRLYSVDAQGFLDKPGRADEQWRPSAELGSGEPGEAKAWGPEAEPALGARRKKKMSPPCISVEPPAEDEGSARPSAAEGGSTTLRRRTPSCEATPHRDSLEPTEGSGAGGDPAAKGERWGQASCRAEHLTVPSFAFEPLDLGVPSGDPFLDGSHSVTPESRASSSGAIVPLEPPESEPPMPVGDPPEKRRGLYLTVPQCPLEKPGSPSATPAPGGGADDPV"}}, "data": [{"compound": "O=C(O)c1cccnc1Nc1cccc(C(F)(F)F)c1", "note": "[NA, 2-{[3-(trifluoromethyl)phenyl]amino}-pyridine-3-carboxylic acid]", "values": [{"measurement": "Kd", "setting": "CaV3.3 (α1I)", "value": 137, "unit": "µM"}, {"measurement": "Kd", "setting": "CaV3.1 (α1G)", "value": 78.4, "unit": "µM"}, {"measurement": "Kd", "setting": "CaV3.2 (α1H)", "value": 192, "unit": "µM"}]}]}
